16 compounds from ChEMBL document CHEMBL2062396, “Synthesis and classical pathway Complement inhibitory activity of C7-functionalized filifolinol derivatives, inspired in K-76 COOH” (Eur J Med Chem, 2012) can be followed below.

The experiment in a line: Inhibition of human classical pathway Complement system assessed as inhibition of complement mediated hemolysis of sensitized sheep RBCs using fresh human sera by Weissman method. The conditions noted are these: for pIC50: read-out: IC50.

pIC50: −log10 of the molar value. Where a name gives a salt, the structure may show the parent alone.

For orientation: pIC50 means −log10 of the IC50, conventionally taken in molar units. Regarding `C[C@@H]1CC[C@H](O)C(C)(C)[C@]12Cc1cc(C(=O)O)cc(Cl)c1O2`, the negative logarithm of the IC50 (pIC50) was 2.81.
Same read-out and setting: the result for `C[C@@H]1CC[C@H]2C(C)(C)[C@H](O)[C@H](O)C[C@]2(C)[C@@]12Cc1c(O)cc(C(=O)O)c(C=O)c1O2` reads 3.24; that for `C[C@@H]1CC[C@H](O)C(C)(C)[C@]12Cc1cc(C(=O)O)cc([N+](=O)[O-])c1O2`, 2.73.
Consider `C[C@@H]1CC[C@H](O)C(C)(C)[C@]12Cc1cc(C(=O)O)cc(N)c1O2`, for which the pIC50 was 2.14.
For `C[C@@H]1CC[C@H](O)C(C)(C)[C@]12Cc1cc(C(=O)O)cc(I)c1O2`, the pIC50 was 2.94.
Turning to `C[C@@H]1CC[C@H](O)C(C)(C)[C@]12Cc1cc(C(=O)O)cc(Br)c1O2`, the pIC50 is 3.08.
Still for that read-out and setting: for `C[C@@H]1CC[C@H](O)C(C)(C)[C@]12Cc1cc(C(=O)O)cc(C(F)(F)F)c1O2` the value was 4.00; for `C[C@@H]1CC[C@H](O)C(C)(C)[C@]12Cc1cc(C(=O)O)cc(-c3ccccc3)c1O2`, 3.85.
Still for that read-out and setting: the result for `C[C@@H]1CC[C@H](O)C(C)(C)[C@]12Cc1cc(C(=O)O)cc(C(=O)O)c1O2` reads 2.15.
In the case of `C[C@@H]1CC[C@H](O)C(C)(C)[C@]12Cc1cc(C(=O)[O-])cc(CC(=O)O)c1O2.[Na+]`, the IC50 result is recorded as “Not Active”.
As for `C[C@@H]1CC[C@H](O)C(C)(C)[C@]12Cc1cc(C(=O)O)cc(/C=C/C(=O)O)c1O2`, the pIC50 is 3.01.
With `C[C@@H]1CC[C@H](O)C(C)(C)[C@]12Cc1cc(C(=O)O)cc(CCC(=O)O)c1O2`, the negative-log IC50 (pIC50) was 3.44.
In the case of `C[C@@H]1CC[C@H](O)C(C)(C)[C@]12Cc1cc(C(=O)O)cc(-c3ccc(C(=O)O)cc3)c1O2`, the pIC50 is 1.74.
With `C[C@@H]1CC[C@H](O)C(C)(C)[C@]12Cc1cc(C(=O)O)cc(CC(O)CO)c1O2` (mixture of isomers), the pIC50 is 3.44.
In the case of `C[C@@H]1CC[C@H](O)C(C)(C)[C@]12Cc1cc(C(=O)O)ccc1O2` [FILIFOLINOIC ACID SODIUM SALT], the negative-log IC50 (pIC50) is 2.70.
Regarding `CC1(C)CC[C@]2(C(=O)O)CC[C@]3(C)C(=CC[C@@H]4[C@@]5(C)CC[C@H](OC(=O)COCC(=O)O)C(C)(C)[C@@H]5CC[C@]43C)[C@@H]2C1` [OLEANOLIC ACID HEMIDIGLYCOLATE SODIUM SALT], the negative logarithm of the IC50 (pIC50) is 4.51.
